From paper PMC11864979, “First-in-class ultralong-target-residence-time p38α inhibitors as a mitosis-targeted therapy for colorectal cancer” (Nature Cancer, 2025)
Read-outs that look alike come from different tables or passages of the source.

Experiments:
Assay in all cases: selectivity profiling in a panel of 340 wild-type kinases (Reaction Biology Europe)
Format in all cases: binding
340 wild-type kinases [1] = molecular target: T1, 340 wild-type kinases (Homo sapiens, UniProt P04626)
T1 construct: purchased Reaction Biology Europe

340 wild-type kinases [2] = molecular target: T2, 340 wild-type kinases (Homo sapiens, UniProt P52333)
T2 construct: purchased Reaction Biology Europe
T2 sequence (P52333 1-1124): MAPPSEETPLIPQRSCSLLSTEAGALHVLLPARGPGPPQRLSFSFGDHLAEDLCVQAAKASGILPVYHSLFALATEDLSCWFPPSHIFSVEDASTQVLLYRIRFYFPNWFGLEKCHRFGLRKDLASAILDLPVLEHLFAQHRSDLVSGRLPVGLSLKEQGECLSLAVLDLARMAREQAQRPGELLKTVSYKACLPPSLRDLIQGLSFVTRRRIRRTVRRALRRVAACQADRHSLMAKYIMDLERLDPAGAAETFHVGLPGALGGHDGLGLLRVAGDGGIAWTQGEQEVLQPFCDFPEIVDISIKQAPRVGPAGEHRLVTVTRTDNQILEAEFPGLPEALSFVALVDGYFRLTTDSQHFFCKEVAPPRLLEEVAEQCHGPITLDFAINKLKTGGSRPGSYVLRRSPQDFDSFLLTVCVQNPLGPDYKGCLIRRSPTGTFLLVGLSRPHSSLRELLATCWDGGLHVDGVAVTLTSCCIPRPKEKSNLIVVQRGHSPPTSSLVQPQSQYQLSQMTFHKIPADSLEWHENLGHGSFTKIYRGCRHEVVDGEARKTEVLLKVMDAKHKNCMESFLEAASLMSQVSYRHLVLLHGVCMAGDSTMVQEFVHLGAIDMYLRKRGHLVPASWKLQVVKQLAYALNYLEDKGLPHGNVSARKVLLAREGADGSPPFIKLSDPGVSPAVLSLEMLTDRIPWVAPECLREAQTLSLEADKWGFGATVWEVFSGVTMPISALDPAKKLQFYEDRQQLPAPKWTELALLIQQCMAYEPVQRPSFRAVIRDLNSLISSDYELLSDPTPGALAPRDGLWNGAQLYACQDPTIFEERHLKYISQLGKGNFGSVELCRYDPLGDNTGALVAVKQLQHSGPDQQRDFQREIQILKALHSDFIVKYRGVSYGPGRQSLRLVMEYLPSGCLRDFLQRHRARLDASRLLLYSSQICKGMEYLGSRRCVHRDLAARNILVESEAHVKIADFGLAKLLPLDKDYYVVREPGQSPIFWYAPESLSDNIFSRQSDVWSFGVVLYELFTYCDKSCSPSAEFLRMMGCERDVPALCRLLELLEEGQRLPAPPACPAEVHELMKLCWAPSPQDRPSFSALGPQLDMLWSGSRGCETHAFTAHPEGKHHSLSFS

340 wild-type kinases [3] = molecular target: T3, 340 wild-type kinases (Homo sapiens, UniProt P78368)
T3 construct: purchased Reaction Biology Europe

340 wild-type kinases [4] = molecular target: T4, 340 wild-type kinases (Homo sapiens, UniProt Q07912)
T4 construct: purchased Reaction Biology Europe

340 wild-type kinases [5] = molecular target: T5, 340 wild-type kinases (Homo sapiens, UniProt Q15831)
T5 construct: purchased Reaction Biology Europe
T5 sequence (Q15831 1-433): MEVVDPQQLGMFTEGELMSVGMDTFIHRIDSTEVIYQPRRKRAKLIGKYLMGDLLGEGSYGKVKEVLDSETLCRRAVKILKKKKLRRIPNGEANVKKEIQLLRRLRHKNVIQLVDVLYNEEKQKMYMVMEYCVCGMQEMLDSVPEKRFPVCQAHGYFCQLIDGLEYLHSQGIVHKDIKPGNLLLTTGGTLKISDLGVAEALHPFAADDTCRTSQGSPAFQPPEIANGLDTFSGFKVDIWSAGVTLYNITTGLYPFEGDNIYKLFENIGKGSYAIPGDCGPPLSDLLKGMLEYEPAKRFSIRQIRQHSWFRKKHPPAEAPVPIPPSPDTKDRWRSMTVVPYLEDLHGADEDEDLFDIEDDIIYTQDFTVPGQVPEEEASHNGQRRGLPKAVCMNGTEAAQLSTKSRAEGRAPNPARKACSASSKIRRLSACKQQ

340 wild-type kinases [6] = molecular target: T6, 340 wild-type kinases (Homo sapiens, UniProt Q16512)
T6 construct: purchased Reaction Biology Europe

340 wild-type kinases [7] = molecular target: T7, 340 wild-type kinases (Homo sapiens, UniProt Q8IU85)
T7 construct: purchased Reaction Biology Europe

340 wild-type kinases [8] = molecular target: T8, 340 wild-type kinases (Homo sapiens, UniProt Q9P0L2)
T8 construct: purchased Reaction Biology Europe
T8 sequence (Q9P0L2 whole entry): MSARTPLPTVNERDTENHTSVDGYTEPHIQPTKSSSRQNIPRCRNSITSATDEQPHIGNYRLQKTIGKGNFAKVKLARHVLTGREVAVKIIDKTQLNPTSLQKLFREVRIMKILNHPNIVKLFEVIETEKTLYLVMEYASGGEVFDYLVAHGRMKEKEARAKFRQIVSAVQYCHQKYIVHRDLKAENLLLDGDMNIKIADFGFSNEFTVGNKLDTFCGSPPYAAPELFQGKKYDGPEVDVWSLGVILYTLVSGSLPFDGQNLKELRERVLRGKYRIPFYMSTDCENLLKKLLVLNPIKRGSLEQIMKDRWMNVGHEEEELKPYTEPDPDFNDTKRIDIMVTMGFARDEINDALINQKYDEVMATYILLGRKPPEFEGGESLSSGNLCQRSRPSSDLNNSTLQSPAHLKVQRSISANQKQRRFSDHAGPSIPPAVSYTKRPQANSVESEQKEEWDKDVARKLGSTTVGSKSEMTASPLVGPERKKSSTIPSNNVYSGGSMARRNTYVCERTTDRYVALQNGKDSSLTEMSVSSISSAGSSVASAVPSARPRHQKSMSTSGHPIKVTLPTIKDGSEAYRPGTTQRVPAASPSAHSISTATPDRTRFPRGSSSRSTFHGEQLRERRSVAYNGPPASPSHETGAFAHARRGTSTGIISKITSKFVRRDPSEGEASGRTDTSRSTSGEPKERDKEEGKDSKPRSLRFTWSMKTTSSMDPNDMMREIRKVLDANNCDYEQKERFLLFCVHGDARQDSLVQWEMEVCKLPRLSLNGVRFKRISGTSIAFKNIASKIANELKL

T7 sequence (Q8IU85 whole entry): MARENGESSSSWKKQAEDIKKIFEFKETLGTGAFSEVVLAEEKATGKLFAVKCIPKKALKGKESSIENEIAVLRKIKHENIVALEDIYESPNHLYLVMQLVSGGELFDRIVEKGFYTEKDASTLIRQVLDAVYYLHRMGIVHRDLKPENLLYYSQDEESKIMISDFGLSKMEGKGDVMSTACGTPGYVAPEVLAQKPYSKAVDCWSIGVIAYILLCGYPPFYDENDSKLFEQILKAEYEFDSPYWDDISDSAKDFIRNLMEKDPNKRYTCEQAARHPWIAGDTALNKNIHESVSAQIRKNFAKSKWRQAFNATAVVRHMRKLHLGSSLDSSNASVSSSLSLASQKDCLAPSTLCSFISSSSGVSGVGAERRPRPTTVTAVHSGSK
T6 sequence (Q16512 whole entry): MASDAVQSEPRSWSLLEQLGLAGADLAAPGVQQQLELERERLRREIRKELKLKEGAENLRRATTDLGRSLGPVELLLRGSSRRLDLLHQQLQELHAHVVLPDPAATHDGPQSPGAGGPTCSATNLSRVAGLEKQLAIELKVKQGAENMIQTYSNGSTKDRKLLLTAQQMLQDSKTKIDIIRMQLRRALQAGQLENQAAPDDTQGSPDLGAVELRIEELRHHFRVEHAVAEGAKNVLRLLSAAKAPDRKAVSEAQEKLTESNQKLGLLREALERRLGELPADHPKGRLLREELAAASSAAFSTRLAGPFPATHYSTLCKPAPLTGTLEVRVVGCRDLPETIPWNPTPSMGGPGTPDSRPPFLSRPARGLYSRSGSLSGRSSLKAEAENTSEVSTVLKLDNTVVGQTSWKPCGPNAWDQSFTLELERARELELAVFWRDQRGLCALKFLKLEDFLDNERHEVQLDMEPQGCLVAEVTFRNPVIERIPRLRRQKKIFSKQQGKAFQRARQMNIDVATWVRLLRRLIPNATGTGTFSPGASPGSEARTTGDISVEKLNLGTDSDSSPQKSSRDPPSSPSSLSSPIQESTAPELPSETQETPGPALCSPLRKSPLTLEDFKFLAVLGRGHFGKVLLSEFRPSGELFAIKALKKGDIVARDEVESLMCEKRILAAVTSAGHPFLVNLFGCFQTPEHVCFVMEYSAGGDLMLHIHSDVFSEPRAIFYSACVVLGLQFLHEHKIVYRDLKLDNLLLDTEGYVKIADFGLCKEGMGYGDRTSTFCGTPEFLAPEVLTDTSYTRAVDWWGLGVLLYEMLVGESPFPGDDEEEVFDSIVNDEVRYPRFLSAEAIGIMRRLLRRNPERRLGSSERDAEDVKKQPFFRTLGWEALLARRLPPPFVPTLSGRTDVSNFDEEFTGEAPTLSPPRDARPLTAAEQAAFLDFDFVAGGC
T1 sequence (P04626 23-1255): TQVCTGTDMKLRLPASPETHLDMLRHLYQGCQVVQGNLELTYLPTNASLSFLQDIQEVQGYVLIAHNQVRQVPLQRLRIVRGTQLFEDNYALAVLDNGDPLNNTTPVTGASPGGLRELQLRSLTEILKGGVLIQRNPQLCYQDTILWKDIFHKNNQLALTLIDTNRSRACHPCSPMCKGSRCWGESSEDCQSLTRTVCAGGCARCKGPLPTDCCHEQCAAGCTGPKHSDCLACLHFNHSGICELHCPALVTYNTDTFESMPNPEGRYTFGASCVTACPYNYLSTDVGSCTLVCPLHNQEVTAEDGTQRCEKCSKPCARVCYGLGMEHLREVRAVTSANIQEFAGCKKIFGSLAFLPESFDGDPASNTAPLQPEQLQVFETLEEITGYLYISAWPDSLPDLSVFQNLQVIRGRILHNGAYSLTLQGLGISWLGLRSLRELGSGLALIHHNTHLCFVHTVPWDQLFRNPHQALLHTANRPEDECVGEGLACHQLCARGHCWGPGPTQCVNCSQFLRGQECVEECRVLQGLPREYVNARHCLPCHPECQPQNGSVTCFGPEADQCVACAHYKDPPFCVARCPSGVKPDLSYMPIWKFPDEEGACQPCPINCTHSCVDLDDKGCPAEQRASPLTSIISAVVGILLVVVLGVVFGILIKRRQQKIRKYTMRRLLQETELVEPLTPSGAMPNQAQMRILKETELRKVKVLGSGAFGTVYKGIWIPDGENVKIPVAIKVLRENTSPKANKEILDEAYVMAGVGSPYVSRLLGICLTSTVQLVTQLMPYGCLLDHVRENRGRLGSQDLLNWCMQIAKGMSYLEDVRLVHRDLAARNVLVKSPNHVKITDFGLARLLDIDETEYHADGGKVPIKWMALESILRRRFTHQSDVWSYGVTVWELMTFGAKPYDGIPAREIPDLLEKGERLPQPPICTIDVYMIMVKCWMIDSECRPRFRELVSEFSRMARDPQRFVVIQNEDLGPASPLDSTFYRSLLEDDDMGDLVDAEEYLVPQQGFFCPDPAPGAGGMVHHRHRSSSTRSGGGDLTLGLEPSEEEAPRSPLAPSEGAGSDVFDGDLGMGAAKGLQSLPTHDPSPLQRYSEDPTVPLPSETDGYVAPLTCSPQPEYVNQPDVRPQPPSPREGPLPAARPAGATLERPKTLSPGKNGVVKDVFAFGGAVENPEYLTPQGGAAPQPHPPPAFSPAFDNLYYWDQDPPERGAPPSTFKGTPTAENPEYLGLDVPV
T4 sequence (Q07912 whole entry): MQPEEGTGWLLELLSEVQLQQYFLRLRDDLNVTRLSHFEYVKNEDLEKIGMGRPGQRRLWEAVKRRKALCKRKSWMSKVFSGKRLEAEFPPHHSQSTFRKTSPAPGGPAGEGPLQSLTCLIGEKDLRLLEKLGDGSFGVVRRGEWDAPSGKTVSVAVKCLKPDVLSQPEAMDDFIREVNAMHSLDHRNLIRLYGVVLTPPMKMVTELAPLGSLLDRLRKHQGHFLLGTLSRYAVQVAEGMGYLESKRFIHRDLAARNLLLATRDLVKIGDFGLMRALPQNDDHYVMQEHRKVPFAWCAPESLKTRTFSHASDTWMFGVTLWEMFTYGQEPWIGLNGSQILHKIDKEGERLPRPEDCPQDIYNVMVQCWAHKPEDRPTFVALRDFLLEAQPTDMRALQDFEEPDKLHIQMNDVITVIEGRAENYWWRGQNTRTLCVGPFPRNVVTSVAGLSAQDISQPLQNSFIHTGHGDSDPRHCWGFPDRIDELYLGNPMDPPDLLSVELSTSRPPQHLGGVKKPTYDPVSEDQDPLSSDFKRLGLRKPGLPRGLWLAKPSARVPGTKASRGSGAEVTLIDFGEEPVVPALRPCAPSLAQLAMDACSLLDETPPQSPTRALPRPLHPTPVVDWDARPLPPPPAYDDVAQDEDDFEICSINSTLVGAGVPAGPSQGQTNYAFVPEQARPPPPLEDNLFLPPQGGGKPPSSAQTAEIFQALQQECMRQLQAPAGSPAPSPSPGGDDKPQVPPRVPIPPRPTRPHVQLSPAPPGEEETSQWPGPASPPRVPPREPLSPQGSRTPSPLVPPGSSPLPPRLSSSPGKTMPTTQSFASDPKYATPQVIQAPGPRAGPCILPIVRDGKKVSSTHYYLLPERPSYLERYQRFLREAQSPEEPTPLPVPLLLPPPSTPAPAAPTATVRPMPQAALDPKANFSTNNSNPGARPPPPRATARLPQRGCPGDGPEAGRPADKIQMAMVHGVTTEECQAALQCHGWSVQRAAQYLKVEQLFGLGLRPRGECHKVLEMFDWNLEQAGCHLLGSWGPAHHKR
T3 sequence (P78368 whole entry): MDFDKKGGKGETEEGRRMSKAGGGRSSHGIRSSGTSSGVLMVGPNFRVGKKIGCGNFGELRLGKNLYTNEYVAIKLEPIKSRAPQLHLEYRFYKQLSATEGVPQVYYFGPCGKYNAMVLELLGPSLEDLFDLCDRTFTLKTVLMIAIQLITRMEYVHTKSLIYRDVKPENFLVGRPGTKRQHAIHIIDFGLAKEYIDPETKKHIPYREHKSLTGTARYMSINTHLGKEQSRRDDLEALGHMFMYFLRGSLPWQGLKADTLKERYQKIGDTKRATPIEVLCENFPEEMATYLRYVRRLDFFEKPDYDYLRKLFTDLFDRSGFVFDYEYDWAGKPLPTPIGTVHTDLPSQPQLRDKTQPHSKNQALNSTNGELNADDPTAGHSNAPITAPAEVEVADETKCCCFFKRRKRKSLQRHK

SMILES: CNC(=O)c1ccc2c(c1)C(=O)c1ccc(Nc3ccc(F)c(NC(=O)C4CC4)c3)cc1CC2 [Compound 2015]
- remaining activity at 0.2 µM (340 wild-type kinases [1]; 0.2 µM 2015, read-out: ERBB2 residual activity): 105%
- remaining activity at 1 µM (340 wild-type kinases [1]; 1 µM 2015, read-out: ERBB2 residual activity): 102%
- remaining activity at 0.2 µM (340 wild-type kinases [1]; ERBB2, 0.2 µM, read-out: residual activity): 105%
- remaining activity at 1 µM (340 wild-type kinases [1]; ERBB2, 1 µM, read-out: residual activity): 102%
- remaining activity at 0.2 µM (340 wild-type kinases [2]; 0.2 µM 2015, read-out: JAK3 residual activity): 105%
- remaining activity at 1 µM (340 wild-type kinases [2]; 1 µM 2015, read-out: JAK3 residual activity): 110%
- remaining activity at 0.2 µM (340 wild-type kinases [2]; JAK3, 0.2 µM, read-out: residual activity): 105%
- remaining activity at 1 µM (340 wild-type kinases [2]; JAK3, 1 µM, read-out: residual activity): 110%
- remaining activity at 0.2 µM (340 wild-type kinases [3]; 0.2 µM 2015, read-out: CK1gamma2 residual activity): 111%
- remaining activity at 1 µM (340 wild-type kinases [3]; 1 µM 2015, read-out: CK1gamma2 residual activity): 113%
- remaining activity at 0.2 µM (340 wild-type kinases [3]; CK1gamma2, 0.2 µM, read-out: residual activity): 111%
- remaining activity at 1 µM (340 wild-type kinases [3]; CK1gamma2, 1 µM, read-out: residual activity): 113%
- remaining activity at 0.2 µM (340 wild-type kinases [4]; 0.2 µM 2015, read-out: ACK1 residual activity): 110%
- remaining activity at 1 µM (340 wild-type kinases [4]; 1 µM 2015, read-out: ACK1 residual activity): 108%
- remaining activity at 0.2 µM (340 wild-type kinases [4]; ACK1, 0.2 µM, read-out: residual activity): 110%
- remaining activity at 1 µM (340 wild-type kinases [4]; ACK1, 1 µM, read-out: residual activity): 108%
- remaining activity at 0.2 µM (340 wild-type kinases [5]; 0.2 µM 2015, read-out: LKB1/MO25a/STRADa residual activity): 115%
- remaining activity at 1 µM (340 wild-type kinases [5]; 1 µM 2015, read-out: LKB1/MO25a/STRADa residual activity): 91.6%
- remaining activity at 0.2 µM (340 wild-type kinases [5]; LKB1/MO25a/STRADa, 0.2 µM, read-out: residual activity): 115%
- remaining activity at 1 µM (340 wild-type kinases [5]; LKB1/MO25a/STRADa, 1 µM, read-out: residual activity): 91.6%
- remaining activity at 0.2 µM (340 wild-type kinases [6]; 0.2 µM 2015, read-out: PRK1 residual activity): 101%
- remaining activity at 1 µM (340 wild-type kinases [6]; 1 µM 2015, read-out: PRK1 residual activity): 97.6%
- remaining activity at 0.2 µM (340 wild-type kinases [6]; PRK1, 0.2 µM, read-out: residual activity): 101%
- remaining activity at 1 µM (340 wild-type kinases [6]; PRK1, 1 µM, read-out: residual activity): 97.6%
- remaining activity at 0.2 µM (340 wild-type kinases [7]; 0.2 µM 2015, read-out: CAMK1D residual activity): 100%
- remaining activity at 1 µM (340 wild-type kinases [7]; 1 µM 2015, read-out: CAMK1D residual activity): 90.6%
- remaining activity at 0.2 µM (340 wild-type kinases [7]; CAMK1D, 0.2 µM, read-out: residual activity): 100%
- remaining activity at 1 µM (340 wild-type kinases [7]; CAMK1D, 1 µM, read-out: residual activity): 90.6%
- remaining activity at 0.2 µM (340 wild-type kinases [8]; 0.2 µM 2015, read-out: MARK1 residual activity): 97.9%
- remaining activity at 1 µM (340 wild-type kinases [8]; 1 µM 2015, read-out: MARK1 residual activity): 95.7%
- remaining activity at 0.2 µM (340 wild-type kinases [8]; MARK1, 0.2 µM, read-out: residual activity): 97.9%
- remaining activity at 1 µM (340 wild-type kinases [8]; MARK1, 1 µM, read-out: residual activity): 95.7%
